{"source": "patent US20210214399A1", "about": "“PH LOW INSERTION PEPTIDE AND COMPOSITION THEREOF” (priority 2017, published 2021)", "key": {"[1]": {"details": "background art, pHLIP derivatives produced by sequence adjustment; cited from earlier work"}, "4T1 cells tumors": {"test_system": "4T1 cells tumors", "details": "fusion peptide 1 mg/kg intravenous every other day combined with CD20 monoclonal antibody GA101 30 mg/kg intraperitoneal twice a week; 4T1 tumors, Balb/c mice", "method": "4T1 cells were inoculated into mouse breasts, 2×10^6 cells/mouse, 50 μl volume.\n(§1) When the tumor grows to 50mm^3, treatment was started.\n(§2) The tumor volume and mouse body weight were measured every 3 days.\nWhen the tumor volume in the control group reached 1000 mm^3, the administration was terminated.\nWhen the tumor grows to 50mm^3, treatment was started. There are four groups: CD20-var3/GA101 group (10), GA101 group (5), CD20-var3 group (5), PBS group (10).\nAdministration method: CD20-var3, 1 mg/kg, intravenous injection, every other day; GA101, 30 mg/kg, intraperitoneal injection, twice a week. The tumor volume and mouse body weight were measured every 3 days.\nas §1, §2"}, "[2]": {"test_system": "Human colorectal cancer cell line SW480", "details": "for insertion into the surface of the cell (fluorescence on cell membrane): acid solution environment, PBS pH 6.3, alexa647 marked peptide; for insertion into the surface of the cell (fluorescence on cell membrane) / membrane insertion ability: 37° C. 1 hour; for membrane insertion ability: neutral solution environment, PBS pH 7.4, alexa647 marked peptide", "procedure": "(1) The SW480 cells in logarithmic phase were collected, the culture solution was discarded, and the cells were washed twice with saline. […] The cells were transferred to a 10 ml test tube to centrifuge at 1000 rpm for 5 min, the supernatant was removed, and 1 ml of RPMI 1640 medium containing 10% fetal bovine serum was added to resuspend and mix the cells. After 10 μl of the cell suspension was added to a cell counting plate and counted, a certain amount of the cell suspension was added into the laser confocal cell culture dish, which was then adjusted to a cell system of 5* 10^5, 1 ml with complete medium, and put into a cell incubator and incubated overnight.\n(2) The culture solution was prepared using 1 mol/L hydrochloric acid and a PBS buffer at pH 7.4. Hydrochloric acid was added dropwise to the PBS buffer, and finally the pH value of the buffer was titrated to 6.3.\n(3) When the SW480 cells adhered after being cultured overnight, the supernatant of the medium was removed, and the cells were washed twice with a PBS buffer at pH 7.4.\n(4) The PBS buffer in the cell culture dish was removed, 1 ml of the previously prepared mixed culture buffers of PBS at pH 6.3 and 7.4 and peptides were added to the two dishes, respectively, and 1 ml of the PBS medium at pH 7.4 without peptides was added to another control dish, and all of them were put in a 37° C. cell incubator to incubate for 1 hour.\n(5) After incubation, the supernatant of the peptide-containing PBS culture solution was removed, and the peptide-containing PBS culture solution was washed three times with peptide-free PBS buffers with different pH values in each group, and then added with a PBS buffer at pH 7.4.\n(6) The prepared cell culture dishes were placed under the laser confocal microscope (647 mm excitation wavelength) to observe the fluorescence expression on the surface of the cell membrane."}, "[3]": {"test_system": "Mouse colon cancer cells CT26 tumors", "details": "for fluorescent marking of tumor tissues by 72 hours: 72 hours after intravenous injection; for marking of tumors (in vivo imaging): CT26 subcutaneous tumors, alexa647 marked peptide intravenously, imaging at 24, 48, 72 hours", "procedure": "Mouse colon cancer cells CT26 were subcutaneously inoculated into Balb/c mice, and when the tumors grew to about 1 cm, saline (N.S.), alexa647 marked p-var7, alexa647 marked var7 were intravenously injected respectively with a dosage of 60 μM/100 pL N. S., in vivo imaging (excitation with Cy5.5 wavelength) was performed at 24, 48, 72 hours with supine position photography. The mice were sacrificed for tumor imaging."}, "A549 tumors": {"test_system": "A549 tumors", "details": "Herceptin 10 mg/kg intraperitoneal combined with Her2 D4-pHLIP 40 μM/100 μl intravenous, nude mice", "procedure": "A549 was inoculated into nude mice, when the tumor diameter grew to 1 cm, the tumor was aseptically peeled off, shredded, homogenized, and sieved to make a single cell suspension which was cultured and amplified in 1640 complete medium. The cells were injected into the subcutaneous abdomen of the nude mice with 1×10^6 cells/body, when the tumor diameter grew to 0.5 to 1 cm, the oversized and undersized tumors were removed, and mice with substantially the same tumor size were grouped. There were 4 groups: injection group of the Her2 D4-pHLIP alone, 10; injection group of the Her2 D4-pHLIP combined with the herceptin, 10; injection group of the Her2 D4-pHLIP combined with the IgG1, 10; injection group of normal saline N. S, 10. The tumor size was measured every 3 days.\nAdministration method: Her2 D4-pHLIP administration: each was injected intravenously with 40 μM/100 μl every time, starting from the day after the grouping was completed, once a day, and once every 2 days; antibody administration: Intraperitoneal injection, the dose was 10 mg/kg, the injection frequency was the same as the Her2 D4-pHLIP, and the injection time was 6 to 12 hours after the administration of the Her2 D4-pHLIP until the end."}}}
{"substance": "ACDDQNPWRAYLDLLFPTDTLLLDLLW (listed as Homo sapiens) [var3]", "values": [{"measurement": "tumor targeting", "setting": "[1]", "result": "improve its tumor targeting"}]}
{"substance": "NIYNCEPANP SEKN SP S TQYCYSIQGGGSACEQNPIYWARYADWLF TTPLLLL DLALLVDADEG [CD20-WT]", "values": [{"measurement": "tumor cell growth", "setting": "4T1 cells tumors", "result": "can significantly inhibit tumor cell growth"}]}
{"substance": "NIYNCEPANP SEKN SP S TQYC Y SIQ GGG SA S EEQNPWARYLEWLFP TETLLLEL [CD20-var7]", "values": [{"measurement": "tumor cell growth", "setting": "4T1 cells tumors", "result": "can significantly inhibit tumor cells growth"}]}
{"substance": "ACEEQNPGGGSACEEQNPWARYLEWLFPTETLLLEL [p-var7]", "values": [{"measurement": "insertion into the surface of the cell (fluorescence on cell membrane)", "setting": "[2]", "result": "could effectively insert into the surface of human colon cancer cell SW480"}, {"measurement": "membrane insertion ability", "setting": "[2]", "result": "lost"}, {"measurement": "selectivity in the acidic microenvironment", "setting": "[2]; p-var7 compared with var7, pH 6.3 vs 7.4", "result": "more selective in the acidic microenvironment of tumor tissues"}, {"measurement": "fluorescent marking of tumor tissues by 72 hours", "setting": "[3]; CT26 tumors, Balb/c mice", "result": "still showed strong fluorescent marking"}, {"measurement": "marking of tumors (in vivo imaging)", "setting": "[3]; Balb/c mice", "result": "could mark tumors"}, {"measurement": "marking ability, compared", "setting": "[3]; p-var7 compared with var7, CT26 tumors, Balb/c mice", "result": "stronger marking ability"}, {"measurement": "accumulation of fluorescence in the tumor sites, persistence", "setting": "[3]; previous experiment results of in vivo imaging, same dose 40 μM/100 μl intravenously", "result": "basically degraded by the third day"}]}
{"substance": "ACEEQNPWARYLEWLFPTETLLLEL [var7, reference compound]", "values": [{"measurement": "insertion into the surface of the cell (fluorescence on cell membrane)", "setting": "[2]", "result": "could effectively insert into the surface of human colon cancer cell SW480"}, {"measurement": "membrane insertion ability", "setting": "[2]", "result": "retained the ability"}, {"measurement": "fluorescence intensity as time went by", "setting": "[3]; 24 to 72 hours, var7 compared with p-var7, CT26 tumors, Balb/c mice", "result": "decayed more significantly"}, {"measurement": "fluorescent marking of tumor tissues by 72 hours", "setting": "[3]; CT26 tumors, Balb/c mice", "result": "only a few markers were visible in the tumor tissues"}, {"measurement": "marking of tumors (in vivo imaging)", "setting": "[3]; Balb/c mice", "result": "could mark tumors"}, {"measurement": "tumor targeting", "setting": "[1]", "result": "maintaining good targeting"}]}
{"substance": "trastuzumab [Herceptin]", "values": [{"measurement": "tumor growth", "setting": "A549 tumors", "result": "significantly inhibited tumor growth"}]}
{"substance": "NIYNCEPANP SEKN SP S TQYCYSIQGGGSACDDQNPWRAYLDLLFPTDTLLLD LLW [CD20-var3]", "values": [{"measurement": "tumor cell growth", "setting": "4T1 cells tumors", "result": "can significantly inhibit tumor cell growth"}]}
